# Test results from paper PMC10144301, “Antiseizure Properties of Histamine H3 Receptor Antagonists Belonging 3,4-Dihydroquinolin-2(1H)-Ones” (Molecules, 2023).
# Where “and” joins values, the source holds several entries; their conditions need not be identical. Identical values can stand only once. Entries after “also recorded” stand apart in the source; their conditions may differ.
# Tests used:
# H3R = H3R (Homo sapiens, UniProt Q9Y5N1); test: CRE luciferase reporter assay for H3R antagonistic activity; type: cell-based
# Protocol: Firstly, all the target compounds were screened at 5 μM and 50 μM. […] The detailed experimental operations refer to the previous paper.
# [1] = test system: maximal electroshock seizure (MES) model; test: Maximal electroshock seizure (MES) model; type: in vivo; details: mice; for Duration of tonic hind limb extension (THLE), protection in MES model: i.p., compared to control group; for Protection in MES model at lowest dosage: 3 mg/kg, compared to control (saline); for Dose dependence of protection in MES model: doses of 3, 10 and 30 mg/kg
# Protocol: One of the two test models is the MES seizure model, another is the PTZ-induced seizure model. […] In addition, the administration of this dosage can minimize the impact of other possible side effects such as central inhibition and cardiac toxicity. […] In addition, the tested dose of VPA was 300 mg/kg. It could be seen that all animals in the control group experienced hindlimb stiffness after the electrical stimulation in the MES model. In the treated group, the definition of protection was the reduction or vanishing of the tonic hind limb extension (THLE) in mice. […] The neurological safety of the compounds 2h, 4a, and 4b was evaluated by the rotarod test. In the MES test, the definition of protection was the reduction or vanishing of the THLE in mice. In the PTZ test, the seizures were induced through the subcutaneous administration of PTZ (85 mg/kg). The antiseizure activities of the compounds in the PTZ test were evaluated by comparing the convulsion scores in mice between taking the compounds or not. VPA and PIT were used as positive drugs. To explore the anticonvulsive mechanism, compound 4a (10 mg/kg) was co-injected with RAMH (10 mg/kg). In addition, the THLE was recorded and compared with that of the mice treated by compound 4a alone. The detailed experimental operations in the MES, PTZ, and rotarod tests refer to our previous paper. All the animal experiments were carried out on 4-week-old KunMing male mice weighing from 20 to 25 g. The mice were housed collectively in polycarbonate cages in groups of 30, where they were maintained on a 12 h light/dark cycle in a temperature controlled (25 ± 2 °C) laboratory with free access to food and water. In the MES and PTZ models, seven animals were used in each group. In the rotarod test, three animals were used in each group. Each animal was used only once. All the experiments referring to animals were applied according to the Guide for the Care and Use of Laboratory Animals and were approved by the Medical Ethics Committee of Jinggangshan University, approval number: 220811002.
# [2] = test system: maximal electroshock seizure (MES) model; parameters: method as in PMID 33325568; details: administrated combined with H3R agonist RAMH; cited from earlier work
# [3] = Rotarod test for neurotoxicity; type: in vivo; details: mice; for Death of treated animals: 300 mg/kg; for Neurotoxicity: rotarod test, i.p., three animals per group
# Protocol: A rotarod test was carried out to estimate the neurological safety of compounds 2h, 4a, and 4b.
# The neurological safety of the compounds 2h, 4a, and 4b was evaluated by the rotarod test. In the MES test, the definition of protection was the reduction or vanishing of the THLE in mice. In the PTZ test, the seizures were induced through the subcutaneous administration of PTZ (85 mg/kg). The antiseizure activities of the compounds in the PTZ test were evaluated by comparing the convulsion scores in mice between taking the compounds or not. VPA and PIT were used as positive drugs. To explore the anticonvulsive mechanism, compound 4a (10 mg/kg) was co-injected with RAMH (10 mg/kg). In addition, the THLE was recorded and compared with that of the mice treated by compound 4a alone. The detailed experimental operations in the MES, PTZ, and rotarod tests refer to our previous paper. All the animal experiments were carried out on 4-week-old KunMing male mice weighing from 20 to 25 g. The mice were housed collectively in polycarbonate cages in groups of 30, where they were maintained on a 12 h light/dark cycle in a temperature controlled (25 ± 2 °C) laboratory with free access to food and water. In the MES and PTZ models, seven animals were used in each group. In the rotarod test, three animals were used in each group. Each animal was used only once. All the experiments referring to animals were applied according to the Guide for the Care and Use of Laboratory Animals and were approved by the Medical Ethics Committee of Jinggangshan University, approval number: 220811002.
# [4] = test system: PTZ-induced seizure model; test: Pentylenetetrazole (PTZ)-induced seizure model; type: in vivo; details: mice, 300 mg/kg, i.p.; PTZ 85 mg/kg s.c.
# Protocol: One of the two test models is the MES seizure model, another is the PTZ-induced seizure model. […] In addition, the administration of this dosage can minimize the impact of other possible side effects such as central inhibition and cardiac toxicity. […] In addition, the tested dose of VPA was 300 mg/kg. The PTZ model was usually used to screen the antiepileptic candidates for the absence of seizures. In this work, compounds 2a-2i, 3a-3c, and 4a-4b were also evaluated for their antiseizure action in the PTZ model in mice, while using VPA as the positive drug. […] The failure of synthesized compounds in the PTZ model is expected because our previously reported H3R inhibitors were also ineffective in the PTZ model. […] A considerable increase in histamine levels was found in the brain after MES-induced seizures, whereas a tendency toward a decrease in histamine levels was observed after PTZ-kindled convulsions. […] The neurological safety of the compounds 2h, 4a, and 4b was evaluated by the rotarod test. In the MES test, the definition of protection was the reduction or vanishing of the THLE in mice. […] The antiseizure activities of the compounds in the PTZ test were evaluated by comparing the convulsion scores in mice between taking the compounds or not. […] In addition, the THLE was recorded and compared with that of the mice treated by compound 4a alone. […]
# Chain of H3R (Q9Y5N1 whole entry, species assumed): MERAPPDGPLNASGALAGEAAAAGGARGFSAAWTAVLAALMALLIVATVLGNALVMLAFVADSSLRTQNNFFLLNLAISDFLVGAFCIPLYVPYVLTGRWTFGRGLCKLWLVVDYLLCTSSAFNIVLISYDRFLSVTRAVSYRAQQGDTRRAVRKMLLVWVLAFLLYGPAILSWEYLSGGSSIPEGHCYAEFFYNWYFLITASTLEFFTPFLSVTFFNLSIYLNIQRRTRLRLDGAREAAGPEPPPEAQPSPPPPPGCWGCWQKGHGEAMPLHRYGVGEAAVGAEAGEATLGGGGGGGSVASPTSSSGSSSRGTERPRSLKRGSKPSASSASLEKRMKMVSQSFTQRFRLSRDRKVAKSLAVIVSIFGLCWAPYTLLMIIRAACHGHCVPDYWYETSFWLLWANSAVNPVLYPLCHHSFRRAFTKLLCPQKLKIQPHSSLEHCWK
structure (smiles),measurement,setting,value
"O=C1CCc2cc(OCCCCCN3CCCCC3)ccc2N1 [Compound 3c, 6-((5-(Piperidin-1-yl)pentyl)oxy)-3,4-dihydroquinolin-2(1H)-one]",IC50,H3R,> 50 µM
same,melting point,,150 to 151 °C
"O=C1CCc2cc(OCCCCN3CCCCC3)ccc2N1 [Compound 3b, 6-(4-(Piperidin-1-yl)butoxy)-3,4-dihydroquinolin-2(1H)-one]",IC50,H3R,2.88 µM
same,melting point,,150 to 151 °C
"CCN(CC)CCCOc1ccc2c(c1)CCC(=O)N2 [Compound 2a, 6-(3-(Diethylamino)propoxy)-3,4-dihydroquinolin-2(1H)-one hydrochioride]",IC50,H3R,0.52 µM
same,"Duration of tonic hind limb extension (THLE), protection in MES model",[1]; 10 mg/kg,no significant difference
same,melting point,,68 to 70 °C
Cc1nc(-c2ccc(OCCCN3CCCCC3)cc2)co1 [I],Antiseizure activity in MES test when combined with RAMH,[2],completely vanished
"O=C1CCc2cc(OCCCN3CCCCC3)ccc2N1 [Compound 2h, 6-(3-(Piperidin-1-yl)propoxy)-3,4-dihydroquinolin-2(1H)-one]",IC50,H3R,0.12 µM
same,Protection in MES model at lowest dosage,[1],no significant difference
same,"Duration of tonic hind limb extension (THLE), protection in MES model","[1]; 10 mg/kg, 10 mg/kg",decreased the duration of THLE significantly; also recorded: antiseizure activity
same,Dose dependence of protection in MES model,[1],dose-dependent manner
same,Death of treated animals,[3],all animals
same,Neurotoxicity,[3]; 10 mg/kg,0/3
same,Neurotoxicity,[3]; 30 mg/kg,0/3
same,Neurotoxicity,"[3]; 100 mg/kg, 100 mg/kg",one mouse in three and 1/3
"CCCCCN1C(=O)CCc2cc(OCCCN3CCCCC3)ccc21 [Compound 4b, 1-Pentyl-6-(3-(piperidin-1-yl)propoxy)-3,4-dihydroquinolin-2(1H)-one]",IC50,H3R,1.91 µM
same,Protection in MES model at lowest dosage,[1],no significant difference
same,"Duration of tonic hind limb extension (THLE), protection in MES model","[1]; 10 mg/kg, 10 mg/kg",decreased the duration of THLE significantly; also recorded: antiseizure activity
same,Dose dependence of protection in MES model,[1],dose-dependent manner
same,Death of treated animals,[3],two-thirds of mice
same,Neurotoxicity,[3]; 10 mg/kg,0/3
same,Neurotoxicity,[3]; 30 mg/kg,0/3
same,Neurotoxicity,"[3]; 100 mg/kg, 100 mg/kg",no neurotoxicity and 0/3
"O=C1CCc2cc(OCCCN3CCCC3)ccc2N1 [Compound 2c, 6-(3-(Pyrrolidin-1-yl)propoxy)-3,4-dihydroquinolin-2(1H)-one hydrochioride]",IC50,H3R,0.47 µM
same,"Duration of tonic hind limb extension (THLE), protection in MES model",[1]; 10 mg/kg,no significant difference
same,melting point,,120 to 122 °C
"O=C1CCc2cc(OCCCN3CCN(c4ccccc4)CC3)ccc2N1 [Compound 2f, 6-(3-(4-Phenylpiperazin-1-yl)propoxy)-3,4-dihydroquinolin-2(1H)-one]",IC50,H3R,25.6 µM
same,melting point,,199 to 201 °C
"O=C1CCc2cc(OCCCN3CCNCC3)ccc2N1 [Compound 2d, 6-(3-(Piperazin-1-yl)propoxy)-3,4-dihydroquinolin-2(1H)-one]",IC50,H3R,> 50 µM
same,melting point,,150 to 151 °C
"O=C1CCc2cc(OCCN3CCCCC3)ccc2N1 [Compound 3a, 6-(2-(Piperidin-1-yl)ethoxy)-3,4-dihydroquinolin-2(1H)-one]",IC50,H3R,7.49 µM
same,melting point,,147 to 149 °C
"CCCC(CCC)C(=O)[O-].[Na+] [VPA, valproic sodium, reference compound]","Duration of tonic hind limb extension (THLE), protection in MES model",[1]; 300 mg/kg,decreased the duration of THLE significantly
same,Protection against seizures induced by PTZ (seizure score),[4],fully inhibited the seizure induced by PTZ
"CCCN(CCC)CCCOc1ccc2c(c1)CCC(=O)N2.Cl [Compound 2b, 6-(3-(Dipropylamino)propoxy)-3,4-dihydroquinolin-2(1H)-one hydrochloride]",IC50,H3R,> 50 µM
same,melting point,,57 to 59 °C
"CN1CCN(CCCOc2ccc3c(c2)CCC(=O)N3)CC1 [Compound 2e, 6-(3-(4-Methylpiperazin-1-yl)propoxy)-3,4-dihydroquinolin-2(1H)-one]",IC50,H3R,38.1 µM
same,melting point,,159 to 160 °C
"O=C1CCc2cc(OCCCN3CCOCC3)ccc2N1 [Compound 2g, 6-(3-(Morpholino)propoxy)-3,4-dihydroquinolin-2(1H)-one]",IC50,H3R,46 µM
same,melting point,,146 to 147 °C
"CCCN1C(=O)CCc2cc(OCCCN3CCCCC3)ccc21 [Compound 4a, 6-(3-(Piperidin-1-yl)propoxy)-1-propyl-3,4-dihydroquinolin-2(1H)-one]",IC50,H3R,0.37 µM
same,Protection in MES model at lowest dosage,[1],no significant difference
same,Duration of THLE in MES model when combined with H3R agonist RAMH,"[1]; 10 mg/kg i.p., co-injected with RAMH 10 mg/kg i.p.",fully vanished; also recorded: cannot decrease the duration of THLE
same,"Duration of tonic hind limb extension (THLE), protection in MES model","[1]; 10 mg/kg, 10 mg/kg",decreased the duration of THLE significantly; also recorded: antiseizure activity
same,Dose dependence of protection in MES model,[1],dose-dependent manner
same,Death of treated animals,[3],two-thirds of mice
same,Neurotoxicity,[3]; 10 mg/kg,0/3
same,Neurotoxicity,[3]; 30 mg/kg,0/3
same,Neurotoxicity,"[3]; 100 mg/kg, 100 mg/kg",no neurotoxicity and 0/3
"O=C1CCc2cc(OCCCN3CCC(c4ccccc4)CC3)ccc2N1 [Compound 2i, 6-(3-(4-Phenylpiperidin-1-yl)propoxy)-3,4-dihydroquinolin-2(1H)-one]",IC50,H3R,38.5 µM
same,melting point,,174 to 176 °C
